Source: patent publication US8993258B2, “Fluorinated voltage sensitive dyes, preparation thereof, and optical methods of use” (The University of Connecticut, priority 2012, dated 2015)

Legend:
[1] = One-photon absorption spectra of dyes (λmax abs, logε); format: physicochemical
Text: (§1) Similar methods were used to prepare additional dyes.

[2] = Photobleaching rate under white light from a xenon lamp; format: physicochemical; conditions: single exponential decay fit of absorbance
In short: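 Photostability was scored as a photobleaching rate, expressed relative to the unsubstituted parent dye. Dyes were irradiated with white light from a xenon lamp while absorbance was monitored. The rate was derived by fitting a single exponential decay to the absorbance over time.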

[3] = Fluorescence emission spectra and fluorescence quantum yield (FQY) of dyes; format: physicochemical
Text: as §1

[4] = Voltage sensitivity: fluorescence change for a 100 millivolt step in membrane potential

SMILES | logε ([1]; Ethanol) | λmax abs ([1]; Ethanol) [nm] | logε ([1]; Lipid vesicles) | λmax abs ([1]; Lipid vesicles) [nm] | logε ([1]; PBS buffer) | λmax abs ([1]; PBS buffer) [nm] | Photobleaching rate (Relative to unsubstituted dye) [2] | FQY ([3]; Ethanol) | λmax em ([3]; Ethanol) [nm] | FQY ([3]; Lipid vesicles) | λmax em ([3]; Lipid vesicles) [nm] | FQY ([3]; PBS buffer) | further results
CCCCN(CCCC)c1ccc2cc(/C=C(\F)c3cc[n+](CCC[N+](CC)(CC)CC)cc3)ccc2c1 [PY3006] | 4.5 | 539 | 4.4 | 488 | 4.2 | 493 | 0.63 | 0.001 | 720 | 0.16 | 636 | — (FQY < 0.001) | Voltage sensitivity ΔF/F per 100 mV ([4]; Ex/Em 578/>695 nm): 12% 578/ >695
CCCCN(CCCC)c1ccc2cc(/C=C/c3cc[n+](CCC[N+](CC)(CC)CC)cc3F)ccc2c1 [PY3128] | 4.4 | 545 | 4.3 | 495 | 4.2 | 506 | 0.63 | 0.002 | 720 | 0.26 | 632 | — (FQY < 0.001) | Voltage sensitivity ΔF/F per 100 mV ([4]; Ex/Em 590/>695 nm): 6% 590/ >695
CCCCN(CCCC)c1ccc2cc(/C=C/c3cc[n+](CCC[N+](CC)(CC)CC)cc3)ccc2c1F [PY3174] | 4.4 | 481 | 4.3 | 444 | 4.2 | 401 | 0.83 | 0.007 | 704 | 0.25 | 610 | 0.002 | λmax em ([3]; PBS buffer): 666 nm; Voltage sensitivity ΔF/F per 100 mV ([4]; Ex/Em 545/>695 nm): 6% 545/ >695
CCCCN(CCCC)c1ccc2cc(/C=C/c3cc[n+](CCC[N+](CC)(CC)CC)cc3F)ccc2c1F [PY3179] | 4.3 | 509 | 4.3 | 465 | 4.1 | 414 | 0.91 | 0.003 | 720 | 0.22 | 632 | — (FQY < 0.001) | Voltage sensitivity ΔF/F per 100 mV ([4]; Ex/Em 572/>695 nm): 18% 572/ >695
CCCCN(CCCC)c1ccc2cc(/C=C/c3c(F)c[n+](CCC[N+](CC)(CC)CC)cc3F)ccc2c1 [PY3184] | 4.6 | 569 | 4.3 | 511 | 4.2 | 530 | 1.56 | 0.004 | 658 | 0.18 | 646 | — (FQY < 0.001) | Voltage sensitivity ΔF/F per 100 mV ([4]; Ex/Em 610/>695 nm): 11% 610/ >695
CCCCN(CCCC)c1ccc2cc(/C=C/c3c(F)c[n+](CCC[N+](CC)(CC)CC)c4ccccc34)ccc2c1 [PY3304] | 4.4 | 617 | 4.2 | 547 | 4.0 | 565 | 5.26 | 0.001 | 825 | 0.03 | 686 | — (FQY < 0.001) | Voltage sensitivity ΔF/F per 100 mV ([4]; Ex/Em 645/>745 nm): 12% 645/ >745
CCCCN(CCCC)c1ccc2cc(/C=C(\F)c3cc[n+](CCC[N+](CC)(CC)CC)cc3)ccc2c1F [PY4038] | 4.4 | 497 | 4.3 | 464 | 4.0 | 409 | 0.62 | 0.001 | 760 | 0.26 | 643 | — (FQY < 0.001) | Voltage sensitivity ΔF/F per 100 mV ([4]; Ex/Em 578/>695 nm): 7% 578/ >695
CCCCN(CCCC)c1ccc2cc(/C=C/c3cc[n+](CCC[N+](CC)(CC)CC)cc3)ccc2c1C(F)(F)F [PY4093] | 4.6 | 449 | 4.5 | 418 | 4.3 | 430 | 0.95 | 0.046 | 687 | 0.35 | 597 | 0.005 | λmax em ([3]; PBS buffer): 715 nm; Voltage sensitivity ΔF/F per 100 mV ([4]; Ex/Em 530/>645 nm): 8% 530/ >645
CCCCN(CCCC)c1ccc2cc(/C=C(\F)c3cc[n+](CCC[N+](CC)(CC)CC)cc3)ccc2c1C(F)(F)F [PY4125] | 4.4 | 453 | 4.4 | 422 | 4.2 | 395 | 1.35 | 0.006 | 694 | 0.30 | 590 | 0.004 | λmax em ([3]; PBS buffer): 624 nm; Voltage sensitivity ΔF/F per 100 mV ([4]; Ex/Em 510/>695 nm): 5% 510/ >695
CCCCN(CCCC)c1ccc2cc(/C=C(\F)c3cc[n+](CCC[N+](CC)(CC)CC)cc3F)ccc2c1F [PY4158] | 4.3 | 510 | 4.2 | 470 | 4.0 | 408 | 0.89 | 0.003 | 845 | 0.23 | 651 | — (FQY < 0.001) | Voltage sensitivity ΔF/F per 100 mV ([4]; Ex/Em 580/>695 nm): 7% 580/ >695
CCCCN(CCCC)c1ccc2cc(/C=C(\F)c3cc[n+](CCC[N+](CC)(CC)CC)cc3F)ccc2c1 [PY4160] | 4.6 | 558 | 4.5 | 500 | 4.4 | 513 | 0.66 | 0.003 | 710 | 0.21 | 660 | — (FQY < 0.001) | Voltage sensitivity ΔF/F per 100 mV ([4]; Ex/Em 602/>695 nm): 10% 602/ >695
CCCCN(CCCC)c1ccc2cc(/C=C/c3c(F)c[n+](CCC[N+](CC)(CC)CC)c4ccccc34)ccc2c1 [PY4221] | 4.4 | 627 | 4.2 | 553 | 4.1 | 537 | – | — (FQY < 0.001) | – | 0.07 | 743 | — (FQY < 0.001) | Voltage sensitivity ΔF/F per 100 mV ([4]; Ex/Em 670/>780 nm): 6% 670/ >780
